Reference: patent US20170022258A1, “PEPTIDES FOR USE IN THE TREATMENT OF IL-1 RELATED DISEASES AND CONDITIONS” (C4M PHARMACEUTICALS PTY LTD., priority 2011, published 2017)
Like-named read-outs stand apart in the source and are kept apart here. Non-standard residues stand in square brackets, D forms with d. Residues, ends and D or L forms follow the SMILES beside them.

Assay: Solubility of peptide under different solvent conditions
Assay type: physicochemical
Settings: 30 min room temperature
Description: 100 mg of each peptide was added to 100 ml total of water plus the solvents, and the solution was gently agitated for 30 min at room temperature.

- solubility at 30 min (benzyl alcohol (0.1-1%) in water, benzyl alcohol (0.1-1%), 100 mg peptide in 100 ml, read-out: Solubility: Benzyl Alcohol): > 1000 µg/mL
- solubility at 30 min (hydrochloric acid (0.1-1%) in water, hydrochloric acid (0.1-1%), 100 mg peptide in 100 ml water plus solvent, read-out: Solubility: Acid): < 1000 µg/mL
- solubility at 30 min (sodium bicarbonate (0.1-1%) in water, sodium bicarbonate (0.1-1%), 100 mg peptide in 100 ml, read-out: Solubility: Base): < 1000 µg/mL
SMILES: CC(=O)N[C@H](CC(C)C)C(=O)N1CCC[C@@H]1C(=O)N[C@H](CC(C)C)C(=O)N[C@H](C)C(=O)N[C@H](Cc1ccc(O)cc1)C(=O)N1CCC[C@@H]1C(=O)N[C@H](CCC(N)=O)C(=O)N[C@H](Cc1c[nH]c2ccccc12)C(=O)N[C@H](Cc1ccc(O)cc1)C(=O)NCC(=O)N1CCC[C@@H]1C(=O)N[C@@H](C(=O)N[C@H](Cc1c[nH]c2ccccc12)C(=O)N[C@H](CCC(=O)O)C(=O)N[C@H](Cc1ccccc1)C(=O)O)[C@H](C)O [SEQ ID NO. 4, Ac-LPLAYPQWYGPTWEF] (Ac-[dL][dP][dL][dA][dY][dP][dQ][dW][dY]G[dP][dT][dW][dE][dF]-OH; C-terminus assumed)
